Measurements from patent US10118926B2, “Tricyclic quinoline and quinoxaline derivatives” (AbbVie Deutschland GmbH & Co. KG, priority 2012, dated 2018).

Target: T1, 5-HT2C receptor (Homo sapiens, UniProt P28335)
T1 construct: β-galactosidase enzyme-complementation fragment (ProLink-type donor); host or cells: U2OS
Experiment: Functional activity: beta-arrestin2 recruitment to the 5-HT2C receptor in U2OS_HTR2C_β-Arrestin cells (DiscoverX)
Format: cell-based
Settings: for EC50: U2OS_HTR2C_β-Arrestin cells, 1.5 h incubation, chemiluminescent β-galactosidase complementation readout, read-out: Potency (EC50) in functional assay; for Emax: relative efficacy: response as percentage of response to 10 μM 5-HT or maximal effect induced by 5-HT (defined as 100%)
Method: The functional activity of compounds of formula I was assayed by incubation with U2OS_HTR2C_β-Arrestin cells (DiscoverX, 93-0289C3) to induce beta-arrestin2 recruitment to the 5-HT2C receptor. The agonist-induced recruitment and proximity of the receptor and beta-arrestin2 leads to complementation and formation of active β-galactosidase. The enzyme complementation results in enzyme activity, which is measured following the termination of the agonist incubation using DiscoveRx's detection reagent, which contains a chemiluminescent substrate which produces a high intensity signal. Cells were plated and a medium-change to a 1% serum containing medium was performed 24 h later. The next day, test compounds were added and incubated for 1.5 h before addition of detection reagent.
The response produced was measured and compared with the response produced by 10 [mu]M 5-HT or the maximal effect induced by 5-HT (defined as 100%) to which it was expressed as a percentage response (relative efficacy). Dose response curves were constructed using Graphpad Prism (Graph Software Inc.) or using in house adapted software using a 4 parameter dose response model with variable slope (fit=(Bottom+(Top−Bottom)/(1+10^((Log EC50−x)*HillSlope))res=(y−fit)). Results are compiled in the table below.

T1 sequence (P28335 33-458): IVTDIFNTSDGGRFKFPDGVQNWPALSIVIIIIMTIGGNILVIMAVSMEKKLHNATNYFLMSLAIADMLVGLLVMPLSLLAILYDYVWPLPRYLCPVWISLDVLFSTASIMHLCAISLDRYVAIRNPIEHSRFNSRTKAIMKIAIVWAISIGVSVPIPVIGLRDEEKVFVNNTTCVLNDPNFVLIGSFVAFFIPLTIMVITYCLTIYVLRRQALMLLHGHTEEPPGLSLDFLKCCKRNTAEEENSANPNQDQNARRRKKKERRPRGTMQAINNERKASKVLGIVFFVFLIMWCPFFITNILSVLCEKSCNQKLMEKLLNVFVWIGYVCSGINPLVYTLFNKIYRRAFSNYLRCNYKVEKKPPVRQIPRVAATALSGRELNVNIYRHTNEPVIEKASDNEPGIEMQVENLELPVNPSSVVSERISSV
T1 sequence (P32121 whole entry partner, the tested form may be a part): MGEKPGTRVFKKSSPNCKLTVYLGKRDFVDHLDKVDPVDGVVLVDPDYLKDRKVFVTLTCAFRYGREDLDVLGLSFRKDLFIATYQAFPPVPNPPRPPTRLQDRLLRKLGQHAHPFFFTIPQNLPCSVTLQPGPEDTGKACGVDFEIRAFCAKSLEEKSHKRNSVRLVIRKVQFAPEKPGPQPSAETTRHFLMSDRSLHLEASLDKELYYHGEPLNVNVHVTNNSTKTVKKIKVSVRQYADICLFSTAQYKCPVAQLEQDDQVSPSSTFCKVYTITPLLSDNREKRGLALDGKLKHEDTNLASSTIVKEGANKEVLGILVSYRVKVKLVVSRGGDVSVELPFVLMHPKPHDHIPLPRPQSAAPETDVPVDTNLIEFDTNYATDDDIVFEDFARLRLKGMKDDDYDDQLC

SMILES	EC50	Emax
CCCN1CCN2CCNCc3cccc1c32 [Example 70, 1-Propyl-2,3,5,6,7,8-hexahydro-1H-[1,4]diazepino[1,7,6-de]quinoxaline]	0.02 to 0.2 µM	63%
Cc1cc2c3c(c1)C1(CCC1)CCN3CCNC2 [Example 76, 10-Methyl-1,2,3,4,6,7-hexahydrospiro[[1,4]diazepino[6,7,1-ij]quinoline-8,1′-cyclobutane], trifluoroacetic acid]	< 0.02 µM	98%
